Data taken from patent publication US4985447A, “Certain benzoquinones, naphthoquinones and derivatives thereof which exhibit thromboxane A2 synthetase inhibition or receptor antagonism and the like” (Takeda Chemical Industries, Ltd., priority 1986, dated 1991).
Like-named read-outs stand apart in the source and are kept apart here.

Assays:
5-lipoxygenase = biological target: T1, 5-lipoxygenase (Rattus norvegicus, UniProt P12527); assay: Inhibition of 5-lipoxygenase (production of 5-HETE in RBL-1 cells); format: cell-based, rat (RBL-1, rat basophilic leukemia cells); conditions: for inhibition at 1 µM: 10^-6 M; for inhibition at 0.1 µM: 10^-7 M
T1 construct: endogenous in cells; host or cells: RBL-1 cells (rat basophilic leukemia)
T1 sequence (P12527 1-673): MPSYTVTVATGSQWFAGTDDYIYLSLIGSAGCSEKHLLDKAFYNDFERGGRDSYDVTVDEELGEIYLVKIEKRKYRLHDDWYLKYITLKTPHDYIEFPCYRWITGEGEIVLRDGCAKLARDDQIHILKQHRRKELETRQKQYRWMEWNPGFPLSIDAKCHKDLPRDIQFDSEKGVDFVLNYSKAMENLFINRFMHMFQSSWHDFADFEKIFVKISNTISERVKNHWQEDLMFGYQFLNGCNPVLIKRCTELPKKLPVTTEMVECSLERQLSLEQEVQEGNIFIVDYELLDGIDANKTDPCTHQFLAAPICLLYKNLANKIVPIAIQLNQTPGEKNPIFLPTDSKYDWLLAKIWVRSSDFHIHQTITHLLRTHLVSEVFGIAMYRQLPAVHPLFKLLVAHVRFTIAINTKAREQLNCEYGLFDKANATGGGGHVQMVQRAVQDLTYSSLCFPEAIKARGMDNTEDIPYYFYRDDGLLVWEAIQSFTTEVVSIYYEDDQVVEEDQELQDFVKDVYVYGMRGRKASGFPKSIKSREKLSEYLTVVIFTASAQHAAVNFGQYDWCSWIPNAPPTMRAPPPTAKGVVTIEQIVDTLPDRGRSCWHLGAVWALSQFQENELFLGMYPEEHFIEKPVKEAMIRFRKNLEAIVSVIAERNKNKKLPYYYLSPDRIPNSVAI
Experimental: Inhibition of 5-lipoxygenase
10^7 RBL-1 cells (rat basophilic leukemia cells) were suspended in 0.5 ml of MCM (mast cell medium ). To the suspension was subsequently added a solution consisting of 0.5 ml of MCM, 50 μg of arachidonic acid, 10 μg of A-23187 (calcium ionophore, Eli Lilly), and a solution of a quinone compound in ethanol at the final concentration of 1 μM, 0.1 μM, 0.01 μM or 0.001 μM of the test compound was added and allowed to react at 37° C. for 20 minutes. After the reaction, 4 ml of ethanol containing 1,4-dimethoxy-2-methyl-3-(3-methoxypropyl)naphthalene as an internal standard were added, mixed well by shaking, and kept at room temperature for 10 minutes. Then the mixture was centrifuged for 10 minutes (2000 rpm), and the supernatant was separated. The supernatant was concentrated to dryness under reduced pressure. To the concentrate, 0.5 ml of 60% aqueous methanol was added. One hundred μl of this solution was subjected to high performance liquid chromatography for quantitative analysis of 5-HETE (5-hydroxyeicosatetraenoic acid). The amount of 5-HETE was analyzed by measurement of the absorbance at […] with a UV absorption monitor.
Inhibitory effect (IE) of production of 5-HETE is expressed by (1-b/a)×100, wherein a is the peak height or the area corrected with the peak due to the internal standard in the absence of the quinone compound, and b is the peak hight or peak area corrected with the peak due to the internal standard in the presence of the quinone compound.

[1] = biological target: T2, Thromboxane A2 (TXA2) synthetase (Equus caballus, UniProt A0A9L0T8T9); assay: Inhibition of Thromboxane A2 (TXA2) synthetase (horse platelet microsome); format: biochemical; conditions: read-out: Inhibition of Thromboxane A2 (TXA2) synthetase
T2 sequence (A0A9L0T8T9 2-534): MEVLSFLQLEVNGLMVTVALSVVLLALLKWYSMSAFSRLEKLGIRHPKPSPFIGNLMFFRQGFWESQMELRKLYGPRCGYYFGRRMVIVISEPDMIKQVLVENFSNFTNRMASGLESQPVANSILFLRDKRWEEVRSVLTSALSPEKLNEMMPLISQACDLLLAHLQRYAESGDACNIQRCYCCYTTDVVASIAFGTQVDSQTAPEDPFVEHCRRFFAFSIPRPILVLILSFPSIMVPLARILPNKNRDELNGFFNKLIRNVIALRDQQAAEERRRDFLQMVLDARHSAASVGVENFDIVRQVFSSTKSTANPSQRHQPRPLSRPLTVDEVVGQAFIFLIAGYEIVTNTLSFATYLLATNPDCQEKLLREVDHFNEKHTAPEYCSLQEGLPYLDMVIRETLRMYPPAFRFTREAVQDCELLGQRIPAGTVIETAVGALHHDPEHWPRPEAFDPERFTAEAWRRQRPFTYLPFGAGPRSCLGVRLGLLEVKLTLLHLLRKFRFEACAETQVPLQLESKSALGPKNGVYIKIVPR
Experimental: Inhibition of Thromboxane A2 (TXA2) synthetase
(§1) As a preparation of TXA2 synthetase, horse platelet microsome treated with indomethacin (indomethacin-treated horse platelet microsome: IPM) according to the method of Needleman et al. (Science 193 163, 1979) was used. To 60 μl of the solution of IPM in 50 mM Tris buffer(pH 7.5) (containing 140 μg on the protein basis), 60μof a solution containing a drug at a variable concentration was added and kept still at room temperature for 5 minutes. One hundred μl of this mixture was taken, to which 20 μl of a buffer containing 30 ng cf prostaglandin H2 (PGH2) with ice-cooling and kept still at 0° C. for 5 minutes to produce thromboxane A2 (TXA2). The reaction was stopped by addition of 500 μl of Tris buffer, and 50 μl of the resultant solution was subjected to radioimmunoassay of thromboxane B2 (TXB2), a stable metabolite of TXA2 [Shibouta et al. Biochem. Pharmacol. 28 3601, 1979]. The rate of inhibition (%) of TXA2 synthetase was determined from the difference in TXB2 productivity between the untreated group and the treated group.
as §1, with “60 μl of” for “60μof”, “of” for “cf”

[2] = tested on: lipid peroxide in rat brain homogenate; assay: Inhibition of production of lipid peroxide in rat brain homogenate; format: biochemical, rat (Sprague-Dawley)
Experimental: Procedure: Sprague-Dawley rats (male, 9-15 weeks old) anesthetized with pentobarbital (50 mg/kg, intraperitoneal administration) were venesected and the brain tissue was resected. The tissue was homogenized in phosphate buffer (pH 7.4), and used as a 5% homogenate (on weight basis). The brain homogenate was allowed to react at 37° C. for 1 hour, and the amount of lipid peroxide produced was determined with the thiobarbituric acid method according to the method of Okawa et al. (Analytical Biochem 95 551, 1979). The drug was added to the 5% homogenate before the reaction at 37° C. for 1 hour so that the final concentration might be 5×10^-7 or 10^-6 M. Inhibition of production of lipid peroxide was expressed as the rate of inhibition in % of the amount produced in the solvent(DMSO)-treated group.

inhibition at 1 µM (5-lipoxygenase) | inhibition at 0.1 µM (5-lipoxygenase) | inhibition at 1 µM ([1]; 10^-6 M) | inhibition at 0.1 µM ([1]; 10^-7 M) | SMILES | inhibition at 0.1 µM [1] | inhibition at 1 µM [1] | Inhibition of production of lipid peroxide in rat brain homogenate ([2]; 5 × 10^-7 M) | Inhibition of production of lipid peroxide in rat brain homogenate ([2]; 10^-6 M)
73% | 28% | 65% | 7% | CC(=Cc1ccc(C(C2=C(C)C(=O)C(C)=C(C)C2=O)c2cccnc2)cc1)C(=O)O (stereo not drawn) [Compound No. 5, 4-[3,5,6-trimethyl-1,4-benzoquinon-2-yl(3-pyridyl)methyl]-α-methylcinnamic acid] | – | – | 29% | 100%
86% | 35% | 32% | – | CCCCC(C1=C(C)C(=O)C(C)=C(C)C1=O)c1cccnc1 (centres unmarked) [Compound No. 7, 2-[1-(3-pyridyl)pentyl]-3,5,6-trimethyl-1,4-benzoquinone] | – | – | 26% | 100%
92% | 80% | 61% | 35% | CC1=C(C)C(=O)C(Cc2cccnc2)=C(C)C1=O [Compound No. 14] | – | – | 46% | 100%
96% | 77% | 49% | 6% | CCCCCCC(C1=C(C)C(=O)C(C)=C(C)C1=O)c1cccnc1 (centres unmarked) [Compound No. 16, 1-(3,5,6-trimethyl-1,4-benzoquinon-2-yl)-1-(3-pyridyl)heptane] | – | – | 44% | 100%
88% | 63% | 37% | 6% | CC1=C(C)C(=O)C(C(CCCCO)c2cccnc2)=C(C)C1=O (centres unmarked) [compound 8] | – | – | 20% | 100%
90% | 62% | 54% | 18% | CC(=O)OCCCCC(C1=C(C)C(=O)C(C)=C(C)C1=O)c1cccnc1 (centres unmarked) [compound 9] | – | – | 17% | 100%
90% | 52% | 67% | 24% | CC1=C(C)C(=O)C(C(CCCCC(=O)O)c2cccnc2)=C(C)C1=O (centres unmarked) [compound 10] | – | – | 13% | 100%
88% | 61% | 67% | 13% | CC1=C(C)C(=O)C(C(CCCCCO)c2cccnc2)=C(C)C1=O (centres unmarked) [compound 11] | – | – | 15% | 100%
91% | 67% | 56% | 22% | CC(=O)OCCCCCC(C1=C(C)C(=O)C(C)=C(C)C1=O)c1cccnc1 (centres unmarked) [compound 12] | – | – | 15% | 100%
91% | 57% | 76% | 15% | CCC(C1=C(C)C(=O)C(C)=C(C)C1=O)c1cccnc1 (centres unmarked) [compound 15] | – | – | 52% | 100%

SMILES | inhibition at 1 µM (5-lipoxygenase) | inhibition at 0.1 µM (5-lipoxygenase) | inhibition at 1 µM ([1]; 10^-6 M) | inhibition at 0.1 µM ([1]; 10^-7 M) | inhibition at 0.1 µM [1] | inhibition at 1 µM [1] | Inhibition of production of lipid peroxide in rat brain homogenate ([2]; 5 × 10^-7 M) | Inhibition of production of lipid peroxide in rat brain homogenate ([2]; 10^-6 M)
CC1=C(C)C(=O)C(C(c2ccccc2)c2cccnc2)=C(C)C1=O (centres unmarked) [Compound No. 2, 3,5,6-trimethyl-2-[phenyl-(3-pyridyl)methyl]-1,4-benzoquinone] | 85% | 60% | – | – | 45% | 89% | 32% | 100%
